Patent US20260159512A1, “BCAT2 INHIBITORS” (AGIOS PHARMACEUTICALS, INC., priority 2021, published 2026)
Where “and” joins values, the source holds several entries; their conditions need not be identical. Equal entries are not always repeated.

Assays:
Details in all cases: average where tested multiple times
BCAT2 [1] = molecular target: T1, BCAT2 (Homo sapiens, UniProt O15382); experiment: BCAT2 in vitro enzyme inhibition assay (resazurin/diaphorase-coupled fluorescence); format: biochemical
T1 sequence (O15382 28-392): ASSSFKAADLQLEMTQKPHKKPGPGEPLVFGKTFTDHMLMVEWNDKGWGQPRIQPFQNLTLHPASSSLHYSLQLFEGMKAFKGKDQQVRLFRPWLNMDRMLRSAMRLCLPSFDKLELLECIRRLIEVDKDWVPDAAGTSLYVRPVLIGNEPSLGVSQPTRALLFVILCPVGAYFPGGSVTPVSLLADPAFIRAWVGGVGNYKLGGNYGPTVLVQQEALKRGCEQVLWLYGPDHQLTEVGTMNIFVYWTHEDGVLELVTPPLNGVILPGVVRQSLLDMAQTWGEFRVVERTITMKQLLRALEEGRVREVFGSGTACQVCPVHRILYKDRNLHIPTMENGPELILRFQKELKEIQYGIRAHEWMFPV
Summary of the method: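 Coupled fluorescence readout: glutamate formed from L-leucine/α-ketoglutarate transamination drives GDH/NAD/diaphorase reduction of resazurin (Ex 540/Em 590). Human BCAT2 was first exposed 1 h at room temperature to compound, top final 100 μM in 3-fold, 10-point series; substrate reaction ran 1 h before SDS quench, in technical duplicate with DMSO max and enzyme-free min controls.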

hBCAT1 = molecular target: T2, hBCAT1 (Homo sapiens, UniProt P54687); experiment: BCAT1 in vitro enzyme inhibition assay (resazurin/diaphorase-coupled fluorescence); format: biochemical
T2 sequence (P54687 1-386): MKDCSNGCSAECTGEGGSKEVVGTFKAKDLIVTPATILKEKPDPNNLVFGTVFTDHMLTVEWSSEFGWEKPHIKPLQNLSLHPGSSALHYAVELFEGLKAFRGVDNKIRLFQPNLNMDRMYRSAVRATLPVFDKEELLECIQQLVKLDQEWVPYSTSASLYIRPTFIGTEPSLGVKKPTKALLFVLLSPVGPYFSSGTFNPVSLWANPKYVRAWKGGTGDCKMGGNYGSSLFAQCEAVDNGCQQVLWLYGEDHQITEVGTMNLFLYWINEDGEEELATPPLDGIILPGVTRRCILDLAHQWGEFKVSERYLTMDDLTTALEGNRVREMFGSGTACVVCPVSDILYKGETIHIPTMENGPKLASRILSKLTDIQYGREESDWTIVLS
Summary of the method: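 Ten-point, 3-fold compound series (top final 100 μM, delivered 1:50 from 50× DMSO stocks) tested against hBCAT1. Inhibition detected via diaphorase-coupled resazurin fluorescence, duplicate wells, with values from repeated runs averaged.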

BCAT2 [2] = molecular target: T1, BCAT2; experiment: BCAT2 in vitro cell inhibition using engineered A549 cells (KMV cell assay, 13C6-KMV by LC-MS/MS); format: cell-based; design: The result was an engineered A549 cell line that expressed endogenous BCAT2; endogenous in cells; host or cells: A549 cells with MUT and BCAT1 knocked out by CRISPR/CAS9

IC50 (BCAT2 [1]) [nM] | IC50 (hBCAT1) | IC50 (BCAT2 [2]) [nM] | SMILES
100 to 500 | > 5000 nM | > 1000 | CC(C)Oc1nc2cnc(-n3nccn3)cc2n1[C@@H]1CCC[C@H](NC(=O)c2ncc(C(F)F)s2)C1 [Example 79, 5-(difluoromethyl)-N-((1S,3R)-3-(2-isopropoxy-6-(2H-1,2,3-triazol-2-yl)-1H-imidazo[4,5-c]pyridin-1-yl)cyclohexyl)thiazole-2-carboxamide]
≤ 100 | < 500 nM | ≤ 100 | O=C(N[C@H]1CCC[C@@H](n2c(-c3ccccn3)nc3cnc(-c4ncco4)cc32)C1)c1ccc(Br)s1 [Example 5, 5-bromo-N-((1S,3R)-3-(6-(oxazol-2-yl)-2-(pyridin-2-yl)-1H-imidazo[4,5-c]pyridin-1-yl)cyclohexyl)thiophene-2-carboxamide]
≤ 100 | < 500 nM | ≤ 100 | O=C(N[C@H]1CCC[C@@H](n2c(-c3ccccn3)nc3cnc(-c4nc[nH]n4)cc32)C1)c1ncc(Cl)s1 [Example 184, 5-chloro-N-((1S,3R)-3-(2-(pyridin-2-yl)-6-(1H-1,2,4-triazol-3-yl)-1H-imidazo[4,5-c]pyridin-1-yl)cyclohexyl)thiazole-2-carboxamide]
100 to 500 | > 5000 nM | > 1000 | Cn1ccc(-c2nc3cnc(-n4nccn4)cc3n2[C@@H]2CCC[C@H](NC(=O)c3ncc(C(F)F)s3)C2)n1 [Example 41, 5-(difluoromethyl)-N-((1S,3R)-3-(2-(1-methyl-1H-pyrazol-3-yl)-6-(2H-1,2,3-triazol-2-yl)-1H-imidazo[4,5-c]pyridin-1-yl)cyclohexyl)thiazole-2-carboxamide]
≤ 100 | 1000 to 5000 nM | 100 to 500 | CO[C@H]1C[C@H](NC(=O)c2ncc(Cl)s2)C[C@H](n2c(CC(C)(C)C)nc3cnc(-c4ccccn4)cc32)C1 (single isomer, unassigned) [Example 442]
100 to 500 | 1000 to 5000 nM | > 1000 | CC(C)Cc1nc2cnc(-c3cc(C(F)(F)F)n[nH]3)cc2n1[C@@H]1CCC[C@H](NC(=O)c2ncc(Cl)s2)[C@H]1O [Example 216, 5-chloro-N-((1S,2R,3R)-2-hydroxy-3-(2-isobutyl-6-(3-(trifluoromethyl)-1H-pyrazol-5-yl)-1H-imidazo[4,5-c]pyridin-1-yl)cyclohexyl)thiazole-2-carboxamide]
≤ 100 | < 500 nM | 100 to 500 | O=C(N[C@H]1CCC[C@@H](n2c(-c3ccccc3F)nc3cnc(-c4cn[nH]c4)cc32)C1)c1ncc(Cl)s1 [Example 81, 5-chloro-N-((1S,3R)-3-(2-(2-fluorophenyl)-6-(1H-pyrazol-4-yl)-1H-imidazo[4,5-c]pyridin-1-yl)cyclohexyl)thiazole-2-carboxamide]
≤ 100 | < 500 nM | ≤ 100 | CC(C)Cc1nc2cnc(-c3nccs3)cc2n1C1CCCC(NC(=O)c2ncc(Cl)s2)C1O (stereo not drawn) [Example 386, 5-chloro-N-(2-hydroxy-3-(2-isobutyl-6-(thiazol-2-yl)-1H-imidazo[4,5-c]pyridin-1-yl)cyclohexyl)thiazole-2-carboxamide]
≤ 100 | < 500 nM | ≤ 100 | O=C(N[C@H]1C[C@H](O)C[C@@H](n2c(-c3ccccc3F)nc3cnc(-n4nccn4)cc32)C1)c1ncc(C(F)F)s1 (single isomer, unassigned) [Example 108]
≤ 100 | < 500 nM | ≤ 100 | O=C(N[C@H]1CCCC[C@@H](n2c(-c3ccccc3F)nc3cnc(-c4nnc[nH]4)cc32)C1)c1ncc(Cl)s1 (single isomer, unassigned) [Example 88, 5-chloro-N-(3-(2-(2-fluorophenyl)-6-(4H-1,2,4-triazol-3-yl)-1H-imidazo[4,5-c]pyridin-1-yl)cycloheptyl)thiazole-2-carboxamide]
≤ 100 | > 5000 nM and 1000 to 5000 nM | > 1000 | CC(=O)N1CC(NC(=O)c2ccc(Br)s2)CC(n2c(-c3ncccc3F)nc3cc(-c4nnco4)ccc32)C1 (stereo not drawn) [Example 283, N-(1-acetyl-5-(2-(3-fluoropyridin-2-yl)-5-(1,3,4-oxadiazol-2-yl)-1H-benzo[d]imidazol-1-yl)piperidin-3-yl)-5-bromothiophene-2-carboxamide]
100 to 500 | > 5000 nM | > 1000 | CC(C)Cc1nc2cnc(-c3ncns3)cc2n1[C@@H]1CCC[C@H](NC(=O)c2ncc(Cl)s2)C1 [Example 328, 5-chloro-N-((1S,3R)-3-(2-isobutyl-6-(1,2,4-thiadiazol-5-yl)-1H-imidazo[4,5-c]pyridin-1-yl)cyclohexyl)thiazole-2-carboxamide]
≤ 100 | < 500 nM | 100 to 500 | CC1(O)[C@@H](NC(=O)c2ncc(Cl)s2)CCC[C@H]1n1c(-c2ccccc2F)nc2cnc(-c3nc[nH]n3)cc21 (single isomer, unassigned) [Example 233]
≤ 100 | < 500 nM | > 1000 | CC(C)[C@H](O)c1nc2cnc(-c3ncccn3)cc2n1[C@@H]1CCC[C@H](NC(=O)c2ncc(Cl)s2)C1 [Example 171, 5-chloro-N-((1S,3R)-3-(2-((S)-1-hydroxy-2-methylpropyl)-6-(pyrimidin-2-yl)-1H-imidazo[4,5-c]pyridin-1-yl)cyclohexyl)thiazole-2-carboxamide]
≤ 100 | < 500 nM | ≤ 100 | O=C(N[C@H]1CCC[C@@H](n2c(COC(F)(F)F)nc3cnc(-c4nc[nH]n4)cc32)C1)c1ncc(Cl)s1 [Example 313, N-((1S,3R)-3-(6-(1H-1,2,4-triazol-3-yl)-2-((trifluoromethoxy)methyl)-1H-imidazo[4,5-c]pyridin-1-yl)cyclohexyl)-5-chlorothiazole-2-carboxamide]
≤ 100 | < 500 nM | ≤ 100 | CC(C)Cc1nc2cnc(-c3nc[nH]n3)cc2n1[C@H]1C[C@@H](NC(=O)c2ncc(Cl)s2)CN(C)C1 (single isomer, unassigned) [Example 136]
≤ 100 | < 500 nM | ≤ 100 | CC(=O)N1CC(NC(=O)c2ncc(C(F)F)s2)CC(n2c(-c3ccccc3F)nc3cnc(-n4nccn4)cc32)C1 (stereo not drawn) [Example 123, N-(1-acetyl-5-(2-(2-fluorophenyl)-6-(2H-1,2,3-triazol-2-yl)-1H-imidazo[4,5-c]pyridin-1-yl)piperidin-3-yl)-5-(difluoromethyl)thiazole-2-carboxamide]
≤ 100 | 500 to 1000 nM | 100 to 500 | CO[C@H]1C[C@H](NC(=O)c2ncc(Cl)s2)C[C@H](n2c(CC(C)C)nc3cnc(-c4ncc(C)o4)cc32)C1 (single isomer, unassigned) [Example 427]
≤ 100 | < 500 nM | > 1000 | O=C(N[C@@H]1C[C@H](n2c(-c3ccccc3F)nc3cnc(-c4nc[nH]n4)cc32)CS(=O)(=O)C1)c1ccc(Cl)s1 [Example 456, 5-chloro-N-((3R,5S)-5-(2-(2-fluorophenyl)-6-(1H-1,2,4-triazol-3-yl)-1H-imidazo[4,5-c]pyridin-1-yl)-1,1-dioxidotetrahydro-2H-thiopyran-3-yl)thiophene-2-carboxamide]
≤ 100 | < 500 nM | ≤ 100 | O=C(N[C@H]1CCC[C@@H](n2c(-c3ccccc3F)nc3cnc(N4CCCC4CO)cc32)C1)c1ncc(Cl)s1 (stereo partly drawn) [Example 196, 5-chloro-N-((1S,3R)-3-(2-(2-fluorophenyl)-6-(2-(hydroxymethyl)pyrrolidin-1-yl)-1H-imidazo[4,5-c]pyridin-1-yl)cyclohexyl)thiazole-2-carboxamide]
≤ 100 | 500 to 1000 nM | ≤ 100 | O=C(N[C@H]1CCC[C@@H](n2c(-c3ccccc3F)nc3cnc(-n4nccn4)nc32)C1)c1ncc(C(F)F)s1 [Example 62, 5-(difluoromethyl)-N-((1S,3R)-3-(8-(2-fluorophenyl)-2-(2H-1,2,3-triazol-2-yl)-9H-purin-9-yl)cyclohexyl)thiazole-2-carboxamide]
